Several values for one entry are separate records, joined by “and”; a condition that tells them apart may be missing. Equal values may be shown once. Toxic doses and inconclusive results are not listed.
System: P388 leukemia ip, CD2F1 mice, survival T/C
Assay: NCI In Vivo Anticancer Drug Screen. Data for tumor model P388 Leukemia (intraperitoneal) in CD2F1 (CDF1) mice
Conditions: endpoint: median survival time, higher = longer survival
In short: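 Mice carrying the transplanted tumor received test compound or vehicle. Survival was recorded in each group, and the value is the treated-group measurement divided by that of the vehicle-treated control group.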

[1] = dose: 100.0 mg/kg/injection, schedule: Q04DX003 (ip), vehicle: Klucel (hydroxypropylcellulose) (HPC)
[2] = dose: 400.0 mg/kg/injection, schedule: Q04DX003 (ip), vehicle: Klucel (hydroxypropylcellulose) (HPC)
[3] = dose: 50.0 mg/kg/injection, schedule: Q01DX009 (ip), vehicle: saline with Tween-80
[4] = dose: 100.0 mg/kg/injection, schedule: Q01DX009 (ip), vehicle: saline with Tween-80
[5] = dose: 6.25 mg/kg/injection, schedule: Q01DX005 (ip), vehicle: Klucel (hydroxypropylcellulose) (HPC)
[6] = dose: 12.5 mg/kg/injection, schedule: Q01DX005 (ip), vehicle: Klucel (hydroxypropylcellulose) (HPC)
[7] = dose: 25.0 mg/kg/injection, schedule: Q01DX005 (ip), vehicle: Klucel (hydroxypropylcellulose) (HPC)
[8] = dose: 50.0 mg/kg/injection, schedule: Q01DX005 (ip), vehicle: Klucel (hydroxypropylcellulose) (HPC)
[9] = dose: 100.0 mg/kg/injection, schedule: Q01DX005 (ip), vehicle: Klucel (hydroxypropylcellulose) (HPC)
[10] = dose: 200.0 mg/kg/injection, schedule: Q01DX005 (ip), vehicle: Klucel (hydroxypropylcellulose) (HPC)
[11] = dose: 50.0 mg/kg/injection, schedule: Q01DX005 (ip), vehicle: saline with Tween-80
[12] = dose: 100.0 mg/kg/injection, schedule: Q01DX005 (ip), vehicle: saline with Tween-80
[13] = dose: 200.0 mg/kg/injection, schedule: Q01DX005 (ip), vehicle: saline with Tween-80

With CC1/C(=N/Nc2ccc([N+](=O)[O-])cc2)CC2C3(C)CCC2(C(C)C(=O)O)C(=O)C13 (stereo unspecified) the T/C (dose: 25.0 mg/kg/injection, schedule: Q04DX003 (ip), vehicle: Klucel (hydroxypropylcellulose) (HPC)) was 92 % of control, the T/C (dose: 50.0 mg/kg/injection, schedule: Q04DX003 (ip), vehicle: Klucel (hydroxypropylcellulose) (HPC)) was 94 % of control and the T/C [1] was 88 % of control and 94 % of control. The T/C [2] was 90 % of control.

With CCCCCCN(CCCCCC)/C(N)=N/O the T/C (dose: 5.0 mg/kg/injection, schedule: Q01DX009 (ip), vehicle: saline with Tween-80) was 113 % of control, the T/C (dose: 10.0 mg/kg/injection, schedule: Q01DX009 (ip), vehicle: saline with Tween-80) was 105 % of control and the T/C (dose: 20.0 mg/kg/injection, schedule: Q01DX009 (ip), vehicle: saline with Tween-80) was 116 % of control.

For Nc1ncnc2c1ncn2C1C=C(CO)C(O)C1O (stereo unspecified), the T/C (dose: 1.0 mg/kg/injection, schedule: Q01DX009 (ip), vehicle: saline) was 163 % of control, the T/C (dose: 2.0 mg/kg/injection, schedule: Q01DX009 (ip), vehicle: saline) was 163 % of control and the T/C (dose: 4.0 mg/kg/injection, schedule: Q01DX009 (ip), vehicle: Klucel (hydroxypropylcellulose) (HPC)) was 161 % of control. The T/C (dose: 4.0 mg/kg/injection, schedule: Q01DX009 (ip), vehicle: saline) was 156 % of control, the T/C (dose: 8.0 mg/kg/injection, schedule: Q01DX009 (ip), vehicle: Klucel (hydroxypropylcellulose) (HPC)) was 153 % of control and 161 % of control and the T/C (dose: 8.0 mg/kg/injection, schedule: Q01DX009 (ip), vehicle: saline) was 152 % of control and 182 % of control.

In the case of COc1ccc(-c2sc(/N=C/c3cc(Br)cc(Br)c3O)c(C#N)c2C)cc1OC, the T/C (dose: 12.5 mg/kg/injection, schedule: Q01DX009 (ip), vehicle: saline with Tween-80) is reported as 103 % of control, the T/C (dose: 25.0 mg/kg/injection, schedule: Q01DX009 (ip), vehicle: saline with Tween-80) is reported as 97 % of control and the T/C [3] is reported as 99 % of control. The T/C [4] was 94 % of control.

In the case of N=C(Oc1ccccc1[N+](=O)[O-])c1ccccc1, the T/C [3] is reported as 90 % of control and 94 % of control, the T/C [4] is reported as 100 % of control and 95 % of control and the T/C (dose: 200.0 mg/kg/injection, schedule: Q01DX009 (ip), vehicle: saline with Tween-80) is reported as 102 % of control and 93 % of control. The T/C (dose: 400.0 mg/kg/injection, schedule: Q01DX009 (ip), vehicle: saline with Tween-80) was 88 % of control.

With CC1CC12C(=O)C1=C(C(=O)C2O)C2(C)CCCC(C)(COC=O)C2C(O)C1OC=O (stereo unspecified) the T/C [5] was 105 % of control, the T/C [6] was 105 % of control and the T/C [7] was 115 % of control. For the same molecule, the T/C [8] was 101 % of control.

With Brc1ccc2c(ccc3c2nnc2nccn23)c1 the T/C (dose: 60.0 mg/kg/injection, schedule: Q01DX005 (ip), vehicle: Klucel (hydroxypropylcellulose) (HPC)) was 91 % of control and 95 % of control, the T/C (dose: 120.0 mg/kg/injection, schedule: Q01DX005 (ip), vehicle: Klucel (hydroxypropylcellulose) (HPC)) was 97 % of control and the T/C (dose: 240.0 mg/kg/injection, schedule: Q01DX005 (ip), vehicle: Klucel (hydroxypropylcellulose) (HPC)) was 86 % of control and 94 % of control.

O=C1C=CC(=O)C(Sc2cccc3ccccc23)=C1 was tested, and the T/C [5] was 96 % of control, the T/C [6] was 102 % of control and 97 % of control and the T/C [7] was 93 % of control. For the same molecule, the T/C [8] was 98 % of control and 107 % of control, the T/C [9] was 107 % of control and the T/C [10] was 104 % of control.

In the case of Cc1cccc(N=Nc2c(-c3ccccc3)nn(C(N)=S)c2C)c1C, the T/C (dose: 100.0 mg/kg/injection, schedule: Q04DX002 (ip), vehicle: Klucel (hydroxypropylcellulose) (HPC)) is reported as 94 % of control, the T/C (dose: 200.0 mg/kg/injection, schedule: Q04DX002 (ip), vehicle: Klucel (hydroxypropylcellulose) (HPC)) is reported as 105 % of control and the T/C (dose: 400.0 mg/kg/injection, schedule: Q04DX002 (ip), vehicle: Klucel (hydroxypropylcellulose) (HPC)) is reported as 94 % of control.

For O=C(Cc1ccc(Cl)cc1)NCCc1ccccc1, the T/C [11] was 102 % of control, the T/C [12] was 102 % of control and the T/C [13] was 99 % of control.

Fc1ccc(CN2COc3c(cc(Cl)c4cccnc34)C2)cc1 was tested, and the T/C [1] was 102 % of control, the T/C (dose: 200.0 mg/kg/injection, schedule: Q04DX003 (ip), vehicle: Klucel (hydroxypropylcellulose) (HPC)) was 100 % of control and the T/C [2] was 110 % of control.

CCOC(=O)c1noc(Oc2ccc(Cl)cc2Cl)n1 was tested, and the T/C (dose: 60.0 mg/kg/injection, schedule: Q01DX005 (ip), vehicle: saline with Tween-80) was 93 % of control, the T/C (dose: 120.0 mg/kg/injection, schedule: Q01DX005 (ip), vehicle: saline with Tween-80) was 97 % of control and the T/C (dose: 240.0 mg/kg/injection, schedule: Q01DX005 (ip), vehicle: saline with Tween-80) was 90 % of control.

For COc1c2occc2c(NC(=O)CI)c2ccc(=O)oc12, the T/C (dose: 25.0 mg/kg/injection, schedule: Q04DX002 (ip), vehicle: saline with Tween-80) was 102 % of control, the T/C (dose: 50.0 mg/kg/injection, schedule: Q04DX002 (ip), vehicle: saline with Tween-80) was 101 % of control and the T/C (dose: 100.0 mg/kg/injection, schedule: Q04DX002 (ip), vehicle: saline with Tween-80) was 101 % of control.

For Cc1cc(C)c(C#N)c(SC(C(=O)Nc2cc(C(F)(F)F)ccc2Cl)c2ccccc2)n1 (stereo unspecified), the T/C [6] was 90 % of control, the T/C [7] was 89 % of control and the T/C [8] was 89 % of control and 90 % of control. For the same molecule, the T/C [9] was 105 % of control and the T/C [10] was 105 % of control.

In the case of Cc1cc(N)c(C)c([N+](=O)[O-])c1, the T/C (dose: 50.0 mg/kg/injection, schedule: Q04DX003 (ip), vehicle: saline with Tween-80) is reported as 95 % of control, the T/C (dose: 100.0 mg/kg/injection, schedule: Q04DX003 (ip), vehicle: saline with Tween-80) is reported as 91 % of control and the T/C (dose: 200.0 mg/kg/injection, schedule: Q04DX003 (ip), vehicle: saline with Tween-80) is reported as 100 % of control.

For CC(C)C(OCc1ccccc1)C(=O)O (stereo unspecified), the T/C (dose: 50.0 mg/kg/injection, schedule: Q01DX009 (ip), vehicle: alcohol) was 88 % of control, the T/C (dose: 100.0 mg/kg/injection, schedule: Q01DX009 (ip), vehicle: alcohol) was 98 % of control and the T/C (dose: 200.0 mg/kg/injection, schedule: Q01DX009 (ip), vehicle: alcohol) was 104 % of control.

In the case of CCCCCCCCCCCC(=O)C(=O)c1ccc(O)c(C)c1O, the T/C (dose: 50.0 mg/kg/injection, schedule: Q01DX009 (ip), vehicle: Klucel (hydroxypropylcellulose) (HPC)) is reported as 107 % of control, the T/C (dose: 100.0 mg/kg/injection, schedule: Q01DX009 (ip), vehicle: Klucel (hydroxypropylcellulose) (HPC)) is reported as 105 % of control and the T/C (dose: 200.0 mg/kg/injection, schedule: Q01DX009 (ip), vehicle: Klucel (hydroxypropylcellulose) (HPC)) is reported as 110 % of control.

For C=CC(C)(C)c1ccc(O)c(CC=C(C)C)c1, the T/C [6] was 100 % of control, the T/C [7] was 102 % of control and the T/C [8] was 102 % of control.

For Cc1cc(SSc2cc(C)nc(N)n2)nc(N)n1, the T/C (dose: 100.0 mg/kg/injection, schedule: Q01DX001 (ip), vehicle: saline with Tween-80) was 86 % of control and the T/C (dose: 200.0 mg/kg/injection, schedule: Q01DX001 (ip), vehicle: saline with Tween-80) was 86 % of control.

In the case of N#CC(C(=O)O)C(c1c(Cl)cccc1Cl)C(C#N)C(=O)O (stereo unspecified), the T/C [11] is reported as 97 % of control and the T/C [12] is reported as 89 % of control.

For O=C(Nc1ccc(Sc2ccc(N=Nc3c(O)c(S(=O)(=O)O)cc4cc(S(=O)(=O)O)ccc34)cc2)cc1)c1ccc(N=Nc2cc(S(=O)(=O)O)c3ccccc3c2O)cc1, the T/C [11] was 98 % of control, the T/C [12] was 102 % of control and the T/C [13] was 98 % of control.

With CC1CCC2OC23C(=O)C2OC2C(C(C)(C)O)C13C (stereo unspecified) the T/C (dose: 100.0 mg/kg/injection, schedule: Q01DX001 (ip), vehicle: Klucel (hydroxypropylcellulose) (HPC)) was 104 % of control, the T/C (dose: 200.0 mg/kg/injection, schedule: Q01DX001 (ip), vehicle: Klucel (hydroxypropylcellulose) (HPC)) was 101 % of control and the T/C (dose: 400.0 mg/kg/injection, schedule: Q01DX001 (ip), vehicle: Klucel (hydroxypropylcellulose) (HPC)) was 100 % of control.

CC(=O)OC1C(O)C(C)OC(OC(=O)C2CCC3C(C2)OC2(CC(OC(=O)/C=C/c4ccccc4)C(C)CO2)C32CO2)C1OC1OC(C)C(O)C(O)C1O (stereo unspecified) was tested, and the T/C (dose: 2.0 mg/kg/injection, schedule: Q01DX005 (ip), vehicle: saline + alcohol) was 100 % of control and 118 % of control, the T/C (dose: 4.0 mg/kg/injection, schedule: Q01DX005 (ip), vehicle: saline + alcohol) was 119 % of control and the T/C (dose: 16.0 mg/kg/injection, schedule: Q01DX005 (ip), vehicle: saline + alcohol) was 151 % of control. The T/C (dose: 32.0 mg/kg/injection, schedule: Q01DX005 (ip), vehicle: saline + alcohol) was 154 % of control and the T/C (dose: 64.0 mg/kg/injection, schedule: Q01DX005 (ip), vehicle: saline + alcohol) was 163 % of control.
